The values that follow come from US10308617B2, “Triazole benzamide derivatives and the compositions and methods of treatment regarding the same” (An2H Discovery Limited, priority 2016, dated 2019).

Where two headings read alike, the source gives them in different places.

In general, Tmax refers to the time from dosing to the highest level. One may read the AUC(0-t) as exposure summed from dosing to a finite time, without extrapolation to infinity. Low values mean low exposure, high ones high exposure.

A short description of data set [1]: Microsomal Stability Assay, human liver microsomes. The following applies: pH 7.4, 1 μM compound, 1.0 mg/mL microsome, NADPH, read-out: HLM t1/2. In kind it is in vitro ADME. As for the experimental part: Compounds were also tested for metabolic stability in both rat liver microsomes (RLM) and human liver microsomes (HLM) and their half-life calculated (See Table 5). The assay was performed as follows. The total volume for each incubation was 250 μL. A 100 μM DMSO solution of compound (diluted from 10 mM stock solution) was spiked into 50 mM KH2PO4 (pH 7.4) buffer containing liver microsome at a concentration of 1.0 mg/mL. The reaction was initiated by the addition of 50 μL of 1 mM NADPH. The final concentration of each compound was 1 μM (1% DMSO). The positive controls, phenacetin for CYP1A2, diclofenac for CYP2C9, omeprazole for CYP2C19, dextromethorphan for CYP2D6 and midazolam for CYP3A4 were added to a separate tube with the final substrate concentrations of 1 μM (1% DMSO) for evaluating the enzyme activities in the liver microsomes. At 0, 15, 30 and 60 min, an aliquot of 15 μL reaction mixtures were removed and 200 μL of methanol (with internal standard of 25 ng/mL propranolol) was added to quench the reaction. The resulting mixture was centrifuged and supernatant was used for LC-MS/MS analysis.
The signals for each compound, or the metabolites for the probe substrates and the internal standard were integrated and the peak area ratios to internal standard were generated. Percent parent remaining at a specified timepoint was calculated based on the peak area ratios at time 0 (as 100%) for in vitro metabolic stability studies in liver microsome and hepatocyte. The observed rate constant (kobs) for the metabolism of substrates was calculated by plotting the natural log of percentage substrate remaining versus time of incubation with the slope being kobs. The half-life (T1/2) was calculated according to the following equation: T1/2=0.693/kobs
In general terms: Microsomes from liver hold many membrane-bound enzymes, among them those of drug oxidation.

A short description of data set [2]: Oral Bioavailability (PO) and Pharmacokinetics Assay. In kind it is in vivo, Sprague-Dawley rats. The settings on record: rat; for Cmax: read-out: C0 or Cmax (ng/mL): Cmax; for half-life: read-out: T½ (converted).
Assay in data set [3]: as above
The settings on record: rat; for AUC(0-t) / clearance / C0 (back-extrapolated initial plasma concentration after IV dose) / Vd: male, Sprague-Dawley, plasma; for C0 (back-extrapolated initial plasma concentration after IV dose): read-out: C0 or Cmax (ng/mL): C0; for Vd: iv, read-out: Vss; for Vd / Vss: 1 mg/kg. In kind it is in vivo, Sprague-Dawley rats. As for the experimental part:
The pharmacokinetics and oral bioavailability of various compounds was evaluated following IV or PO administration to fasted male Sprague-Dawley rats (N=3/route/dose). Each compound was administered to fasted male Sprague-Dawley rats as a single dose of 1 mg/kg (IV) or 5 mg/kg (PO). For IV dosing, each compound was formulated in 10% DMA/15% Solutol/75% HPβ-CD (20%) as a 1 mg/mL solution for IV (1 mL/kg) and for PO (5 mL/kg) administrations.
Blood samples (0.250 mL) were collected into EDTA tubes then processed to generate plasma samples. Blood samples were collected at pre-dose, 0.083, 0.25, 0.5, 1, 2, 4, 8 and 24 hours post-dose administration. Plasma concentrations of each compound were determined using LC-MS/MS with a lower limit of quantitation of 1.0 ng/mL. The pharmacokinetic parameters were determined by non-compartmental methods using WinNonlin.
The pharmacokinetic parameters of each compound were determined by non-compartmental analysis (Model 201 for IV administration and Model 200 for PO administration) using WinNonlin Version 6.4 (Pharsight, Mountain View, Calif.). The area under the curve from the time of dosing to the last measurable concentration, AUC(0-t), was calculated by the linear trapezoidal rule. The area under the concentration-time curve extrapolated to infinity, AUC(0-∞), was calculated as follows: AUC(0-∞)=AUC(0-t)+Clast/k
Where Clast is the last measurable concentration and k is the first order rate constant associated with the terminal elimination phase, estimated by linear regression of log concentration versus time. The half-life (T1/2) of the terminal elimination phase was estimated based on the following equation: T1/2=0.693/k
K was determined based on at least three timepoints with R^2≥0.9. Additional parameters were calculated as follows: CL=Dose/AUC(0-∞)
Where CL is the clearance of An2H compound in L/hr/kg, Dose is the administered dose in mg/kg. Mean residence time (MRT) was calculated as follows: MRT=AUMC(0-∞)/AUC(0-∞)
Where area under the first moment curve extrapolated to infinity (AUMC(0-∞)) was calculated as follows: AUMC(0-∞)=AUMClast+tlast*Clast/k+Clast/k^2
The steady state volume of distribution (Vss) was calculated as follows: Vss=CL×MRT.
The oral bioavailability based on AUC(0-t) was calculated as follows: F (%)=AUCPO/AUCIV×DoseIV/DosePO×100. For IV administration, the initial concentration, Co is reported and is an extrapolated value. For PO administration, the maximum concentration, Cmax is report and is an observed value.

Data set [4] deals with subcutaneous Calu-6 (lung cancer) xenograft. The data set is described as follows: In Vivo Cancer Xenograft Assay, Calu-6. On the set-up: species or system nude mice. The settings on record: 5 or 10 mg/kg daily IP. On the procedure: Compound F was evaluated for in vivo therapeutic efficacy in the treatment of subcutaneous HCT-116 (colon cancer) and Calu-6 (lung cancer) xenograft models in nude mice.
Each mouse was inoculated subcutaneously at the flank region with either HCT-116 or Calu-6 tumor cells ([…]) in 0.1 ml of 1×PBS mixed with Matrigel (1:1) for tumor development and xenotransplantation.
Twenty (20) animals with approx […] tumors were selected for HCT-116 follow up experiment and randomly placed into Groups 1, 2, 3, and 4, wherein Group 1 was for mice administered with a vehicle negative control; Group 2 was positive control of Mice treated with Bevacizumab at 5 mg/kg every three days; Group 3 was mice treated with 5 mg/kg of Compound f daily for up to 20 days; and Group 4 was mice treated with 10 mg/kg of Compound F daily for up to 20 days. The vehicle with or without drug was administered to the mouse by intraperitoneal injection. […]
After tumor cells inoculation, the animals were checked daily for morbidity and mortality. […] Death and observed clinical signs were recorded. Tumor volumes were measured every three days in two dimensions using an electronic caliper, and the volume data are expressed in mm^3 using the formula: V=0.5 a×b2 where a and b are the long and short diameters of the tumor, respectively. Tumor volume average was then recorded for each day for groups 1-4 until day 26. […]

Setting [5] is: male, Sprague-Dawley, plasma, PO 5 mg/kg.
The mark [6] stands for this setting: male, Sprague-Dawley, plasma, PO 5 mg/kg, read-out: F (%) oral bioavailability.
[7] abbreviates: male, Sprague-Dawley, plasma, iv, 1 mg/kg, IV bolus 1 mg/kg.
The mark [8] stands for this setting: male, Sprague-Dawley, plasma, po, 5 mg/kg, PO 5 mg/kg.
[9] abbreviates: male, Sprague-Dawley, plasma, IP 3 mg/kg.

On to `O=C(Nc1nc(NC(=O)c2ccccc2)n(-c2ccccc2)n1)c1ccccc1` [Compound A, N,N′-(1-phenyl-1H-1,2,4-triazole-3,5-diyl)dibenzamide], for which, in data set [1], the half-life at 1 μM is 2.52 h. In data set [2] (male, Sprague-Dawley, plasma, IV bolus 1 mg/kg, read-out: F (%)), the bioavailability was determined as 100%. For the same compound, in data set [2] (setting [5]), the Tmax stood at 0.417 h and the Cmax is 249 ng/mL. The bioavailability in data set [2] (setting [6]) was determined as 6.85%. Besides, the half-life in data set [2] (setting [7]) was 0.85 h. The half-life in data set [2] (setting [8]) was 1.6 h. Also, the “T½” value in data set [2] (PO 5 mg/kg, 5 mg/kg) was 1.62 h. Besides, in data set [3] (IV bolus 1 mg/kg), the AUC(0-t) came out at 1100 ng·h/mL, the clearance came out at 15.7 mL/min/kg, the C0 (back-extrapolated initial plasma concentration after IV dose) was 4520 ng/mL and the Vd was 0.38 L/kg. The “Vss” value in data set [3] (IV bolus 1 mg/kg) was found to be 0.381 L/kg. In data set [3] (PO 5 mg/kg), this compound had an AUC(0-t) of 371 ng·h/mL.
`O=C(/C=C/c1ccccc1)Nc1nc(NC(=O)c2ccccc2)nn1-c1ccccc1` [Compound C, N-(5-cinnamamido-1-phenyl-1H-1,2,4-triazol-3-yl)benzamide]: in data set [1], the half-life at 1 μM is 1.3 h. Further, in data set [2] (setting [5]), the Tmax was 0.38 h and the Cmax was found to be 50.5 ng/mL. Also, the bioavailability in data set [2] (setting [6]) is 2.4%. In data set [2] (setting [7]), the half-life is 0.71 h. Further, in data set [2] (setting [8]), the half-life is 2.3 h. Besides, the “Oral Bioavilability (PO PK) F” value in data set [2] was “F = 2%”. Also, in data set [3] (IV bolus 1 mg/kg), the AUC(0-t) is 1030 ng·h/mL, the clearance worked out at 16.6 mL/min/kg, the C0 (back-extrapolated initial plasma concentration after IV dose) is 3980 ng/mL and the Vd worked out at 0.42 L/kg. Moreover, in data set [3] (IV bolus 1 mg/kg), the “Vss” value was 0.416 L/kg. In data set [3] (PO 5 mg/kg), this compound showed an AUC(0-t) of 114 ng·h/mL.
For `Cc1ccccc1C(=O)Nc1nc(NC(=O)c2ccccc2C)n(-c2ccccc2)n1` [Compound F, 2-methyl-N-[5-[(2-methylbenzoyl)amino]-1-phenyl-1,2,4-triazol-3-yl]benzamide], in data set [4], the “delay of subcutaneous Calu-6 tumor growth” value was “effective of delaying growth”. The half-life at 1 μM in data set [1] was 9.63 h. In addition, in data set [2] (setting [9]), the AUC(0-t) turned out to be 9590 ng·h/mL, the Tmax turned out to be 1.3 h and the Cmax stood at 1470 ng/mL. Also, the bioavailability in data set [2] (male, Sprague-Dawley, plasma, IP 3 mg/kg, read-out: F systemic bioavailability) was 75%. Further, the half-life in data set [2] (male, Sprague-Dawley, plasma, ip, 3 mg/kg, IP 3 mg/kg) was 3.2 h. Moreover, the half-life in data set [2] (setting [7]) was 2.5 h. Besides, in data set [3] (IV bolus 1 mg/kg), the AUC(0-t) came to 4270 ng·h/mL, the clearance was determined as 4.03 mL/min/kg, the C0 (back-extrapolated initial plasma concentration after IV dose) was 5980 ng/mL and the Vd stood at 0.406 L/kg.
Consider `Cc1ccccc1C(=O)Nc1nc(NC(=O)c2ccccc2)n(-c2ccccc2)n1` [Compound H], for which, in data set [2] (setting [5]), the time of peak concentration (Tmax) amounted to 1.33 h and the Cmax stood at 91 ng/mL. Besides, in data set [2] (setting [6]), the bioavailability was determined as 6.2%. The half-life in data set [2] (setting [7]) was 0.69 h. Moreover, the half-life in data set [2] (setting [8]) is 1.7 h. For the same compound, the “Oral Bioavilability (PO PK) F” value in data set [2] is reported as “F = 6%”. Further, in data set [3] (IV bolus 1 mg/kg), the AUC(0-t) is 1370 ng·h/mL, the clearance is 12.2 mL/min/kg, the C0 (back-extrapolated initial plasma concentration after IV dose) was 6740 ng/mL and the Vd is 0.4 L/kg. In addition, the “Vss” value in data set [3] (IV bolus 1 mg/kg) amounted to 0.401 L/kg. In addition, in data set [3] (PO 5 mg/kg), the AUC(0-t) worked out at 410 ng·h/mL.
For the compound `Cc1ccccc1C(=O)Nc1nc(NC(=O)c2ccccc2)nn1-c1ccccc1` [Compound K, N-(5-benzamido-2-phenyl-1,2,4-triazol-3-yl)-2-methyl-benzamide], in data set [2] (setting [5]), the Tmax came to 0.42 h and the Cmax stood at 52.4 ng/mL. In data set [2] (setting [6]), the bioavailability was found to be 4%. Besides, in data set [2] (setting [7]), the half-life is 0.6 h. Besides, the half-life in data set [2] (setting [8]) is 2.1 h. The “Oral Bioavilability (PO PK) F” value in data set [2] is listed as “F = 4%”. In data set [3] (IV bolus 1 mg/kg), the AUC(0-t) was found to be 902 ng·h/mL, the clearance was found to be 18.4 mL/min/kg, the C0 (back-extrapolated initial plasma concentration after IV dose) is 2120 ng/mL and the Vd was found to be 0.71 L/kg. Moreover, the “Vss” value in data set [3] (IV bolus 1 mg/kg) amounted to 0.707 L/kg. In data set [3] (PO 5 mg/kg), this compound registered an AUC(0-t) of 172 ng·h/mL.
Take `O=C(Nc1nc(Nc2ncnc3ccccc23)n(-c2ccccc2)n1)c1ccccc1` [Compound L, N-[1-phenyl-5-(quinazolin-4-ylamino)-1,2,4-triazol-3-yl]benzamide]: in data set [1], the half-life at 1 μM was 0.642 h.
Same read-out and setting: to `O=C(/C=C/c1ccccc1)Nc1nc(NC(=O)c2ccccc2)nn1-c1ccccn1` [Compound U1] belongs 0.115 h.
